“Also recorded” adds a separate entry of the source.
B1: α-B crystallin: recombinant human α-B crystallin; small heat shock protein encoded by the CRYAB gene, SEQ ID NO:1 (protein, listed as Homo sapiens)
chain: MDIAIHHPWIRRPFFPFHSPSRLFDQFFGEHLLESDLFPTSTSLSPFYLRPPSFLRAPSWFDTGLSEMRLEKDRFSVNLDVKHFSPEELKVKVLGDVIEVHGKHEERQDEHGFISREFHRKYRIPADVDPLTITSSLSSDGVLTVNGPRKQVSGPERTIPITREEKPAVTAAPKK

Experiments:
Type in all cases: cell-based, human
DCM cardiomyocytes = experiment: Force measurements (Fpassive) in single demembranated dilated cardiomyopathy (DCM) cardiomyocytes; details: SL 1.8-2.4 μm; for Fpassive (Fpassive-SL curve) after alkaline phosphatase vs baseline: AP 2000 U/mL, 40 minutes at 20° C.
Protocol: (§1) Force measurements were performed on single demembranated cardiomyocytes (n ranged from 9 to 15 for each group and experimental protocol) as described previously.^4, 5 Cardiomyocytes were isolated from donor, AS, and DCM hearts. Briefly, samples were thawed in relaxing solution (in mmol/L: free Mg, 1; KCl, 100; EGTA, 2; Mg-ATP, 4; imidazole, 10; pH 7.0), mechanically disrupted and incubated for 5 minutes in relaxing solution supplemented with 0.5% TRITON® X-100. The cell suspension was washed 5 times in relaxing solution. Single cardiomyocytes were selected under an inverted microscope and attached with silicone adhesive between a force transducer and a piezoelectric motor. Cardiomyocyte Fpassive was measured in relaxing buffer at room temperature within a sarcomere length (SL) range between 1.8 and 2.4 μm. Force values were normalized to cardiomyocyte cross-sectional area calculated from the diameter of the cells, assuming a cylindrical shape. As a test of cell viability, each cardiomyocyte was also transferred from relaxing to maximally activating solution (pCa4.5), at which isometric force developed. Once a steady state force was reached, the cell was shortened within 1 ms to 80% of its original length to determine baseline force. Only cells developing active forces >20 kN/m^2 were included in the analysis. Thereafter, cardiomyocytes were incubated in relaxing solution supplemented with alkaline phosphatases (AP) (2000 U/mL; New England Biolabs), 6 mmol/L dithiothreitol (MP Biochemicals) for 40 minutes at 20° C. and Fpassive was measured again at SL 1.8-2.4 μm. Subsequently, cardiomyocytes were stretched to ˜2.6 μm SL, incubated in relaxing buffer with pH 6.6, and held in the stretched state for 15 minutes (prestretch). […] Finally, the pH 6.6 buffer was supplemented with recombinant human α-B crystallin at 0.1 mg/ml and Fpassive was measured in the presence of α-B crystallin again at SL 1.8-2.4 μm.

AS cardiomyocytes = experiment: Force measurements (Fpassive) in single demembranated aortic stenosis (AS) cardiomyocytes; details: for Fpassive (Fpassive-SL curve) after alkaline phosphatase vs baseline: AP 2000 U/mL, 40 minutes at 20° C.; for Fpassive (Fpassive-SL curve) after α-B crystallin vs AS baseline: single AS cardiomyocytes
Protocol: Force measurements were performed on single demembranated cardiomyocytes (n ranged from 9 to 15 for each group and experimental protocol) as described previously.^4, 5 Cardiomyocytes were isolated from donor, AS, and DCM hearts. Briefly, samples were thawed in relaxing solution (in mmol/L: free Mg, 1; KCl, 100; EGTA, 2; Mg-ATP, 4; imidazole, 10; pH 7.0), mechanically disrupted and incubated for 5 minutes in relaxing solution supplemented with 0.5% TRITON® X-100. The cell suspension was washed 5 times in relaxing solution. Single cardiomyocytes were selected under an inverted microscope and attached with silicone adhesive between a force transducer and a piezoelectric motor. Cardiomyocyte Fpassive was measured in relaxing buffer at room temperature within a sarcomere length (SL) range between 1.8 and 2.4 μm. Force values were normalized to cardiomyocyte cross-sectional area calculated from the diameter of the cells, assuming a cylindrical shape. As a test of cell viability, each cardiomyocyte was also transferred from relaxing to maximally activating solution (pCa4.5), at which isometric force developed. Once a steady state force was reached, the cell was shortened within 1 ms to 80% of its original length to determine baseline force. Only cells developing active forces >20 kN/m^2 were included in the analysis. Thereafter, cardiomyocytes were incubated in relaxing solution supplemented with alkaline phosphatases (AP) (2000 U/mL; New England Biolabs), 6 mmol/L dithiothreitol (MP Biochemicals) for 40 minutes at 20° C. and Fpassive was measured again at SL 1.8-2.4 μm. Subsequently, cardiomyocytes were stretched to ˜2.6 μm SL, incubated in relaxing buffer with pH 6.6, and held in the stretched state for 15 minutes (prestretch). Thereafter, cardiomyocytes were returned to slack length and stabilized for 5 minutes before recording the Fpassive with an identical stretch protocol from SL 1.8-2.4 μm in the low pH buffer. Finally, the pH 6.6 buffer was supplemented with recombinant human α-B crystallin at 0.1 mg/ml and Fpassive was measured in the presence of α-B crystallin again at SL 1.8-2.4 μm.
In a second set of experiments, single AS cardiomyocytes underwent either incubation at pH 6.6 alone or a prestretch in relaxing buffer with pH 6.6 to ˜2.6 μm SL, followed by the same stretch protocol from SL 1.8-2.4 μm.
Finally, in a third set of experiments, Fpassive was measured in single AS cardiomyocytes from SL 1.8-2.4 μm before and after incubation with α-B crystallin, before and after incubation with α-B crystallin and a prestretch to ˜2.6 μm SL, and before and after incubation with α-B crystallin, a prestretch to ˜2.6 μm SL and incubation at pH 6.6.

donor cardiomyocytes = experiment: Force measurements (Fpassive) in single demembranated donor cardiomyocytes; details: SL 1.8-2.4 μm; for Fpassive (Fpassive-SL curve) after alkaline phosphatase vs baseline: AP 2000 U/mL, 40 minutes at 20° C.
Protocol: as §1

[1] = after AP, prestretch to ~2.6 μm SL in pH 6.6, α-B crystallin 0.1 mg/ml

| Fpassive (Fpassive-SL curve) after alkaline phosphatase vs baseline (AS cardiomyocytes; AS cardiomyocytes, SL 1.8-2.4 μm) | Molecule | Fpassive (Fpassive-SL curve) after alkaline phosphatase vs baseline (DCM cardiomyocytes) | Fpassive (Fpassive-SL curve) after alkaline phosphatase vs baseline (DCM cardiomyocytes; listed as AP) | Fpassive (Fpassive-SL curve) after alkaline phosphatase vs baseline (AS cardiomyocytes; AS cardiomyocytes, SL 1.8-2.4 μm, listed as AP) | Fpassive (Fpassive-SL curve) after alkaline phosphatase vs baseline (donor cardiomyocytes) | Fpassive (Fpassive-SL curve) after alkaline phosphatase vs baseline (donor cardiomyocytes; listed as AP) | Fpassive (Fpassive-SL curve) after α-B crystallin (DCM cardiomyocytes; [1]) | Fpassive (Fpassive-SL curve) after α-B crystallin (AS cardiomyocytes; AS cardiomyocytes, after AP, prestretch to ~2.6 μm SL in pH 6.6, α-B crystallin 0.1 mg/ml, SL 1.8-2.4 μm) | Fpassive (Fpassive-SL curve) after α-B crystallin vs AS baseline (AS cardiomyocytes; α-B crystallin alone, no prior intervention (FIG. 6A), SL 1.8-2.4 μm) | Fpassive (Fpassive-SL curve) after α-B crystallin vs AS baseline (AS cardiomyocytes; α-B crystallin and prestretch to ~2.6 μm SL alone (FIG. 6B)) | Fpassive (Fpassive-SL curve) after α-B crystallin vs AS baseline (AS cardiomyocytes; α-B crystallin, prestretch to ~2.6 μm SL and pH 6.6 (FIG. 6C)) | Fpassive (Fpassive-SL curve) after α-B crystallin (donor cardiomyocytes; [1]) |
| --- | --- | --- | --- | --- | --- | --- | --- | --- | --- | --- | --- | --- |
| the Fpassive-SL curve failed to shift | alkaline phosphatase [reference compound] | the Fpassive-SL curve failed to shift | had no effect on the Fpassive-SL curve; also recorded: not in AS or DCM cardiomyocytes | no significant change in the Fpassive-SL curve; also recorded: not in AS or DCM cardiomyocytes | Fpassive significantly increased; also recorded: the Fpassive-SL curve shifted upward | shifts the diastolic Fpassive-SL relation upward in donor | – | – | – | – | – | – |
| – | B1 | – | – | – | – | – | lowered diastolic stiffness well below baseline values; also recorded: Fpassive dropped to a level significantly below baseline; also recorded: fell to a position that was significantly below baseline and comparable to the baseline position of donor cardiomyocytes; also recorded: falls below the baseline diastolic Fpassive-SL relation in AS and DCM cardiomyocytes | lowered diastolic stiffness well below baseline values; also recorded: dropped Fpassive to a level significantly lower than baseline; also recorded: dropped to a position that was significantly lower than baseline and comparable to the baseline position of donor cardiomyocytes; also recorded: falls below the baseline diastolic Fpassive-SL relation in AS and DCM cardiomyocytes | shifted the diastolic Fpassive-SL relation downward; also recorded: decreased Fpassive significantly; also recorded: shifted the Fpassive-SL curve significantly downward compared to baseline | decreased Fpassive significantly as well; also recorded: yielded a similar result | decreased Fpassive significantly as well; also recorded: yielded a similar result | Fpassive normalized again to baseline; also recorded: the curve returned to an intermediate position between baseline and AP; also recorded: coincides with the baseline diastolic Fpassive-SL relation of donor cardiomyocytes |

— patent US11504415B2, “Treatment of heart failure with preserved ejection fraction” (Stichting VUmc, priority 2016, dated 2022)
